From patent publication US6682896B1, “Peptides representing epitopic sites on r-IFN-β, antibodies thereto and uses thereof” (Schering Aktiengesellschaft, priority 1988, dated 2004)

Key:
Conditions in all cases: 50 μg peptide per well dried to well; goat anti-mouse/HRP, ABTS
neutralizing mAb A5 = assay: ELISA binding of mAb A5 to plate-dried synthetic peptides
Description: (§1) A series of enzyme-linked immunosorbent assays (ELISA) were run in which a panel of three neutralizing mab's, identified as A1, A5 and A7 (developed by […] Grossberg at the Medical College of Wisconsin) and a single non-neutralizing mAb, identified as B2b (received from Medical College of Wisconsin, […] and S. Grossberg), was assessed for binding to synthetic peptides IB, IC, IE, and a control. In each case, the peptide was dissolved in 0.05M Tris buffer, pH 9.5 and aliquoted in 100 μl volumes to wells of a microtiter plate (Corning) at a concentration of 50 μg peptide per well. The plate was placed in a vacuum dessicator overnight to dry the peptide to the well. Standard ELISA procedures were followed after the overnight coupling, i.e. common blocking steps, washes, incubation conditions and color development of the appropriate goat anti-mouse/horseradish peroxidase conjugate with ABTS substrate. […] The non neutralizing mAb B2b reacted with peptides IB and IC but not with IE.

neutralizing mAb A7 = assay: ELISA binding of mAb A7 to plate-dried synthetic peptides
Description: as §1

non-neutralizing mAb B2b = assay: ELISA binding of mAb B2b to plate-dried synthetic peptides
Description: as §1

Substance: H-IPEEIKQL-OH [peptide IE, NH2-Ile-Pro-Glu-Glu-Ile-Lys-Gln-Leu-COOH]
- Reaction (binding) of mAb A5 with peptide in ELISA (neutralizing mAb A5): preferential binding
- Reaction (binding) of mAb A7 with peptide in ELISA (neutralizing mAb A7): virtually no activity
- Reaction (binding) of non-neutralizing mAb B2b with peptide in ELISA (non-neutralizing mAb B2b): not with IE
